Experimental data: PubChem BioAssay (NCI)
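Where inhibition never reached the appropriate level, the endpoint shown equals the highest concentration tested. Otherwise, values were interpolated linearly from a five-concentration, 48-hour dose response in 96-well plates. GI50 is the concentration that inhibits growth by half. TGI denotes the concentration required for complete inhibition of growth.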

Tested on: ACHN renal
Test: DTP human tumour cell line panel, 48 h

| Structure (SMILES) | TGI [µM] |
| --- | --- |
| CC1(C)OC2C(=O)C=C(COCc3ccccc3)C2O1 (stereo not drawn) | > 100 |
| O=C(CSC1=NCCN1)Nc1ccccc1 | 53.8 |
| CCC1(O)C(=O)OCc2c1cc1n(c2=O)Cc2cc3cc(N)ccc3nc2-1 (stereo not drawn) | 0.0142 |
| COC12c3ccccc3-c3ccccc3C1[C@H]1C(=O)OC(=O)[C@H]12 (stereo partly drawn) | > 10 |
| Cc1ccc(S(=O)(=O)NCCSCCSCCNS(=O)(=O)c2ccc(C)cc2)cc1 | > 100 |
| COc1cc(C(c2ccc3c(c2)OCO3)N2C(=O)CCC2C(=O)O)cc(OC)c1OC (stereo not drawn) | > 100 |

Tested on: MDA-MB-231 breast
Test: DTP human tumour cell line panel, 48 h

| Structure (SMILES) | TGI [µM] |
| --- | --- |
| CCNC1=C(NC(=O)CC)C(=O)c2ccccc2C1=O | > 100 |
| CC1(C)OC2C(=O)C=C(COCc3ccccc3)C2O1 (stereo not drawn) | > 100 |
| O=C(CSC1=NCCN1)Nc1ccccc1 | 50.3 |
| CCC1(O)C(=O)OCc2c1cc1n(c2=O)Cc2cc3cc(N)ccc3nc2-1 (stereo not drawn) | > 64.8 |
| COC12c3ccccc3-c3ccccc3C1[C@H]1C(=O)OC(=O)[C@H]12 (stereo partly drawn) | > 10 |
| COc1cc(C(c2ccc3c(c2)OCO3)N2C(=O)CCC2C(=O)O)cc(OC)c1OC (stereo not drawn) | > 100 |

Tested on: SW-620 colon
Test: DTP human tumour cell line panel, 48 h

| Structure (SMILES) | TGI [µM] |
| --- | --- |
| CCOC(=O)[C@H](Cc1ccc(O)cc1)N=C1[C@H]2CCC[C@]1(O)[C@@](C)([N+](=O)[O-])C2 | > 100 |
| CCNC1=C(NC(=O)CC)C(=O)c2ccccc2C1=O | > 100 |
| CC1(C)OC2C(=O)C=C(COCc3ccccc3)C2O1 (stereo not drawn) | 52.2 |
| O=C(CSC1=NCCN1)Nc1ccccc1 | > 100 |
| CCC1(O)C(=O)OCc2c1cc1n(c2=O)Cc2cc3cc(N)ccc3nc2-1 (stereo not drawn) | > 100 |
| COC12c3ccccc3-c3ccccc3C1[C@H]1C(=O)OC(=O)[C@H]12 (stereo partly drawn) | > 10 |
| Cc1ccc(S(=O)(=O)NCCSCCSCCNS(=O)(=O)c2ccc(C)cc2)cc1 | > 100 |
| COc1cc(C(c2ccc3c(c2)OCO3)N2C(=O)CCC2C(=O)O)cc(OC)c1OC (stereo not drawn) | > 100 |

Tested on: M14 melanoma
Test: DTP human tumour cell line panel, 48 h

| Structure (SMILES) | TGI [µM] |
| --- | --- |
| CCOC(=O)[C@H](Cc1ccc(O)cc1)N=C1[C@H]2CCC[C@]1(O)[C@@](C)([N+](=O)[O-])C2 | > 100 |
| CCNC1=C(NC(=O)CC)C(=O)c2ccccc2C1=O | 98.5 |
| CC1(C)OC2C(=O)C=C(COCc3ccccc3)C2O1 (stereo not drawn) | 92.9 |
| O=C(CSC1=NCCN1)Nc1ccccc1 | > 100 |
| CCC1(O)C(=O)OCc2c1cc1n(c2=O)Cc2cc3cc(N)ccc3nc2-1 (stereo not drawn) | 0.153 |
| COC12c3ccccc3-c3ccccc3C1[C@H]1C(=O)OC(=O)[C@H]12 (stereo partly drawn) | > 10 |
| COc1cc(C(c2ccc3c(c2)OCO3)N2C(=O)CCC2C(=O)O)cc(OC)c1OC (stereo not drawn) | > 100 |

Tested on: U251 CNS
Test: DTP human tumour cell line panel, 48 h

| Structure (SMILES) | TGI [µM] |
| --- | --- |
| CCOC(=O)[C@H](Cc1ccc(O)cc1)N=C1[C@H]2CCC[C@]1(O)[C@@](C)([N+](=O)[O-])C2 | > 100 |
| CCNC1=C(NC(=O)CC)C(=O)c2ccccc2C1=O | > 100 |
| CC1(C)OC2C(=O)C=C(COCc3ccccc3)C2O1 (stereo not drawn) | 90 |
| O=C(CSC1=NCCN1)Nc1ccccc1 | 39.2 |
| CCC1(O)C(=O)OCc2c1cc1n(c2=O)Cc2cc3cc(N)ccc3nc2-1 (stereo not drawn) | 0.129 |
| COC12c3ccccc3-c3ccccc3C1[C@H]1C(=O)OC(=O)[C@H]12 (stereo partly drawn) | > 10 |
| COc1cc(C(c2ccc3c(c2)OCO3)N2C(=O)CCC2C(=O)O)cc(OC)c1OC (stereo not drawn) | > 100 |

Tested on: SK-MEL-28 melanoma
Test: DTP human tumour cell line panel, 48 h

| Structure (SMILES) | TGI [µM] | GI50 [µM] |
| --- | --- | --- |
| CCOC(=O)[C@H](Cc1ccc(O)cc1)N=C1[C@H]2CCC[C@]1(O)[C@@](C)([N+](=O)[O-])C2 | > 100 |  |
| CCNC1=C(NC(=O)CC)C(=O)c2ccccc2C1=O | > 100 |  |
| CC1(C)OC2C(=O)C=C(COCc3ccccc3)C2O1 (stereo not drawn) | 95.4 |  |
| O=C(CSC1=NCCN1)Nc1ccccc1 | 62.6 |  |
| CCC1(O)C(=O)OCc2c1cc1n(c2=O)Cc2cc3cc(N)ccc3nc2-1 (stereo not drawn) | 41.8 | 0.493 |
| COC12c3ccccc3-c3ccccc3C1[C@H]1C(=O)OC(=O)[C@H]12 (stereo partly drawn) | > 10 |  |
| Cc1ccc(S(=O)(=O)NCCSCCSCCNS(=O)(=O)c2ccc(C)cc2)cc1 | > 100 |  |
| COc1cc(C(c2ccc3c(c2)OCO3)N2C(=O)CCC2C(=O)O)cc(OC)c1OC (stereo not drawn) | > 100 |  |

Tested on: LOX IMVI melanoma
Test: DTP human tumour cell line panel, 48 h

| Structure (SMILES) | TGI [µM] |
| --- | --- |
| CCOC(=O)[C@H](Cc1ccc(O)cc1)N=C1[C@H]2CCC[C@]1(O)[C@@](C)([N+](=O)[O-])C2 | > 100 |
| CC1(C)OC2C(=O)C=C(COCc3ccccc3)C2O1 (stereo not drawn) | 53.5 |
| O=C(CSC1=NCCN1)Nc1ccccc1 | 39.2 |
| CCC1(O)C(=O)OCc2c1cc1n(c2=O)Cc2cc3cc(N)ccc3nc2-1 (stereo not drawn) | 0.059 |
| COC12c3ccccc3-c3ccccc3C1[C@H]1C(=O)OC(=O)[C@H]12 (stereo partly drawn) | > 10 |
| Cc1ccc(S(=O)(=O)NCCSCCSCCNS(=O)(=O)c2ccc(C)cc2)cc1 | > 100 |
| COc1cc(C(c2ccc3c(c2)OCO3)N2C(=O)CCC2C(=O)O)cc(OC)c1OC (stereo not drawn) | > 100 |

Tested on: SF-268 CNS
Test: DTP human tumour cell line panel, 48 h

| Structure (SMILES) | TGI [µM] |
| --- | --- |
| CCNC1=C(NC(=O)CC)C(=O)c2ccccc2C1=O | > 100 |
| CC1(C)OC2C(=O)C=C(COCc3ccccc3)C2O1 (stereo not drawn) | > 100 |
| O=C(CSC1=NCCN1)Nc1ccccc1 | 93.3 |
| COC12c3ccccc3-c3ccccc3C1[C@H]1C(=O)OC(=O)[C@H]12 (stereo partly drawn) | > 10 |
| Cc1ccc(S(=O)(=O)NCCSCCSCCNS(=O)(=O)c2ccc(C)cc2)cc1 | > 100 |
| COc1cc(C(c2ccc3c(c2)OCO3)N2C(=O)CCC2C(=O)O)cc(OC)c1OC (stereo not drawn) | > 100 |

Tested on: NCI/ADR-RES ovarian
Test: DTP human tumour cell line panel, 48 h

| Structure (SMILES) | TGI [µM] |
| --- | --- |
| CCOC(=O)[C@H](Cc1ccc(O)cc1)N=C1[C@H]2CCC[C@]1(O)[C@@](C)([N+](=O)[O-])C2 | > 100 |
| CCNC1=C(NC(=O)CC)C(=O)c2ccccc2C1=O | > 100 |
| CC1(C)OC2C(=O)C=C(COCc3ccccc3)C2O1 (stereo not drawn) | > 100 |
| O=C(CSC1=NCCN1)Nc1ccccc1 | 73.6 |
| CCC1(O)C(=O)OCc2c1cc1n(c2=O)Cc2cc3cc(N)ccc3nc2-1 (stereo not drawn) | 0.266 |
| COC12c3ccccc3-c3ccccc3C1[C@H]1C(=O)OC(=O)[C@H]12 (stereo partly drawn) | > 10 |
| Cc1ccc(S(=O)(=O)NCCSCCSCCNS(=O)(=O)c2ccc(C)cc2)cc1 | > 100 |
| COc1cc(C(c2ccc3c(c2)OCO3)N2C(=O)CCC2C(=O)O)cc(OC)c1OC (stereo not drawn) | > 100 |

Tested on: NCI-H23 lung
Test: DTP human tumour cell line panel, 48 h

| Structure (SMILES) | TGI [µM] |
| --- | --- |
| CCOC(=O)[C@H](Cc1ccc(O)cc1)N=C1[C@H]2CCC[C@]1(O)[C@@](C)([N+](=O)[O-])C2 | > 100 |
| CCNC1=C(NC(=O)CC)C(=O)c2ccccc2C1=O | > 100 |
| CC1(C)OC2C(=O)C=C(COCc3ccccc3)C2O1 (stereo not drawn) | 59.4 |
| O=C(CSC1=NCCN1)Nc1ccccc1 | > 100 |
| CCC1(O)C(=O)OCc2c1cc1n(c2=O)Cc2cc3cc(N)ccc3nc2-1 (stereo not drawn) | 0.0817 |
| COC12c3ccccc3-c3ccccc3C1[C@H]1C(=O)OC(=O)[C@H]12 (stereo partly drawn) | > 10 |
| COc1cc(C(c2ccc3c(c2)OCO3)N2C(=O)CCC2C(=O)O)cc(OC)c1OC (stereo not drawn) | > 100 |

Tested on: UACC-62 melanoma
Test: DTP human tumour cell line panel, 48 h

| Structure (SMILES) | TGI [µM] |
| --- | --- |
| CCOC(=O)[C@H](Cc1ccc(O)cc1)N=C1[C@H]2CCC[C@]1(O)[C@@](C)([N+](=O)[O-])C2 | > 100 |
| CCNC1=C(NC(=O)CC)C(=O)c2ccccc2C1=O | > 100 |
| CC1(C)OC2C(=O)C=C(COCc3ccccc3)C2O1 (stereo not drawn) | 28.6 |
| O=C(CSC1=NCCN1)Nc1ccccc1 | 52.4 |
| CCC1(O)C(=O)OCc2c1cc1n(c2=O)Cc2cc3cc(N)ccc3nc2-1 (stereo not drawn) | 0.251 |
| COc1cc(C(c2ccc3c(c2)OCO3)N2C(=O)CCC2C(=O)O)cc(OC)c1OC (stereo not drawn) | > 100 |

Tested on: HOP-92 NSCLC
Test: DTP human tumour cell line panel, 48 h

| Structure (SMILES) | TGI [µM] |
| --- | --- |
| CCOC(=O)[C@H](Cc1ccc(O)cc1)N=C1[C@H]2CCC[C@]1(O)[C@@](C)([N+](=O)[O-])C2 | > 100 |
| CCNC1=C(NC(=O)CC)C(=O)c2ccccc2C1=O | > 100 |
| O=C(CSC1=NCCN1)Nc1ccccc1 | 91 |
| COC12c3ccccc3-c3ccccc3C1[C@H]1C(=O)OC(=O)[C@H]12 (stereo partly drawn) | > 10 |
| Cc1ccc(S(=O)(=O)NCCSCCSCCNS(=O)(=O)c2ccc(C)cc2)cc1 | > 100 |
| COc1cc(C(c2ccc3c(c2)OCO3)N2C(=O)CCC2C(=O)O)cc(OC)c1OC (stereo not drawn) | > 100 |

Tested on: OVCAR-4 ovarian
Test: DTP human tumour cell line panel, 48 h

| Structure (SMILES) | TGI [µM] |
| --- | --- |
| CCOC(=O)[C@H](Cc1ccc(O)cc1)N=C1[C@H]2CCC[C@]1(O)[C@@](C)([N+](=O)[O-])C2 | > 100 |
| CCNC1=C(NC(=O)CC)C(=O)c2ccccc2C1=O | > 100 |
| O=C(CSC1=NCCN1)Nc1ccccc1 | > 100 |
| CCC1(O)C(=O)OCc2c1cc1n(c2=O)Cc2cc3cc(N)ccc3nc2-1 (stereo not drawn) | > 22 |
| COC12c3ccccc3-c3ccccc3C1[C@H]1C(=O)OC(=O)[C@H]12 (stereo partly drawn) | > 10 |
| Cc1ccc(S(=O)(=O)NCCSCCSCCNS(=O)(=O)c2ccc(C)cc2)cc1 | > 100 |
| COc1cc(C(c2ccc3c(c2)OCO3)N2C(=O)CCC2C(=O)O)cc(OC)c1OC (stereo not drawn) | > 100 |

Tested on: MDA-N
Test: DTP human tumour cell line panel, 48 h

| Structure (SMILES) | TGI [µM] |
| --- | --- |
| CCOC(=O)[C@H](Cc1ccc(O)cc1)N=C1[C@H]2CCC[C@]1(O)[C@@](C)([N+](=O)[O-])C2 | > 100 |
| CCNC1=C(NC(=O)CC)C(=O)c2ccccc2C1=O | > 100 |
| CC1(C)OC2C(=O)C=C(COCc3ccccc3)C2O1 (stereo not drawn) | > 100 |
| O=C(CSC1=NCCN1)Nc1ccccc1 | 59 |
| CCC1(O)C(=O)OCc2c1cc1n(c2=O)Cc2cc3cc(N)ccc3nc2-1 (stereo not drawn) | 0.285 |
| COC12c3ccccc3-c3ccccc3C1[C@H]1C(=O)OC(=O)[C@H]12 (stereo partly drawn) | > 10 |
| Cc1ccc(S(=O)(=O)NCCSCCSCCNS(=O)(=O)c2ccc(C)cc2)cc1 | > 100 |
| COc1cc(C(c2ccc3c(c2)OCO3)N2C(=O)CCC2C(=O)O)cc(OC)c1OC (stereo not drawn) | > 100 |

Tested on: HL-60(TB) leukemia
Test: DTP human tumour cell line panel, 48 h

| Structure (SMILES) | TGI [µM] |
| --- | --- |
| CCOC(=O)[C@H](Cc1ccc(O)cc1)N=C1[C@H]2CCC[C@]1(O)[C@@](C)([N+](=O)[O-])C2 | > 100 |
| CCNC1=C(NC(=O)CC)C(=O)c2ccccc2C1=O | > 100 |
| CC1(C)OC2C(=O)C=C(COCc3ccccc3)C2O1 (stereo not drawn) | 77.1 |
| CCC1(O)C(=O)OCc2c1cc1n(c2=O)Cc2cc3cc(N)ccc3nc2-1 (stereo not drawn) | 0.0145 |
| COC12c3ccccc3-c3ccccc3C1[C@H]1C(=O)OC(=O)[C@H]12 (stereo partly drawn) | > 10 |
